Experimental data: the supplement of paper PMC11451515

Tested on: P12-Ichikawa
Test: cell viability relative to DMSO control; higher = less cytotoxic
Details: 48 h
Summary of the method: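 Viability values are per-plate percentages of DMSO wells, with background from cell-free wells. Library compounds in DMSO were pin-dosed, in an 11-point threefold series from 47 μM to 0.79 nM, onto NOMO1 or SEM (500 cells/well) or P12-Ichikawa (1000 cells/well) leukemia cells in 1536-well plates (5 μl). Those cells had been adapted for at least four passages in each medium, and CellTiter-Glo One luminescence was read after 48 h at 37°C.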

[1] = HPLM + 10% dialyzed FBS, 0.000781 µM
[2] = HPLM + 10% dialyzed FBS, 0.00234 µM
[3] = HPLM + 10% dialyzed FBS, 0.00702 µM
[4] = HPLM + 10% dialyzed FBS, 0.0211 µM
[5] = HPLM + 10% dialyzed FBS, 0.0632 µM
[6] = HPLM + 10% dialyzed FBS, 0.19 µM
[7] = HPLM + 10% dialyzed FBS, 0.569 µM
[8] = HPLM + 10% dialyzed FBS, 1.71 µM
[9] = HPLM + 10% dialyzed FBS, 5.12 µM
[10] = HPLM + 10% dialyzed FBS, 15.4 µM
[11] = HPLM + 10% dialyzed FBS, 46.1 µM
[12] = RPMI 5 mM glucose + 10% FBS, 0.000781 µM
[13] = RPMI 5 mM glucose + 10% FBS, 0.00234 µM
[14] = RPMI 5 mM glucose + 10% FBS, 0.00702 µM
[15] = RPMI 5 mM glucose + 10% FBS, 0.0211 µM
[16] = RPMI 5 mM glucose + 10% FBS, 0.0632 µM
[17] = RPMI 5 mM glucose + 10% FBS, 0.19 µM
[18] = RPMI 5 mM glucose + 10% FBS, 0.569 µM
[19] = RPMI 5 mM glucose + 10% FBS, 1.71 µM
[20] = RPMI 5 mM glucose + 10% FBS, 5.12 µM
[21] = RPMI 5 mM glucose + 10% FBS, 15.4 µM
[22] = RPMI 5 mM glucose + 10% FBS, 46.1 µM
[23] = RPMI 5 mM glucose + 10% dialyzed FBS, 0.000781 µM
[24] = RPMI 5 mM glucose + 10% dialyzed FBS, 0.00234 µM
[25] = RPMI 5 mM glucose + 10% dialyzed FBS, 0.00702 µM
[26] = RPMI 5 mM glucose + 10% dialyzed FBS, 0.0211 µM
[27] = RPMI 5 mM glucose + 10% dialyzed FBS, 0.0632 µM
[28] = RPMI 5 mM glucose + 10% dialyzed FBS, 0.19 µM
[29] = RPMI 5 mM glucose + 10% dialyzed FBS, 0.569 µM
[30] = RPMI 5 mM glucose + 10% dialyzed FBS, 1.71 µM
[31] = RPMI 5 mM glucose + 10% dialyzed FBS, 5.12 µM
[32] = RPMI 5 mM glucose + 10% dialyzed FBS, 15.4 µM
[33] = RPMI 5 mM glucose + 10% dialyzed FBS, 46.1 µM

SMILES | cell viability [1] | cell viability [2] | cell viability [3] | cell viability [4] | cell viability [5] | cell viability [6] | cell viability [7] | cell viability [8] | cell viability [9] | cell viability [10] | cell viability [11] | cell viability [12] | cell viability [13] | cell viability [14] | cell viability [15] | cell viability [16] | cell viability [17] | cell viability [18] | cell viability [19] | cell viability [20] | cell viability [21] | cell viability [22] | cell viability [23] | cell viability [24] | cell viability [25] | cell viability [26] | cell viability [27] | cell viability [28] | cell viability [29] | cell viability [30] | cell viability [31] | cell viability [32] | cell viability [33]
CCCCC(F)(F)[C@@]1(O)CC[C@H]2[C@@H](CC(=O)[C@@H]2CCCCCCC(=O)O)O1 | 128% | 123% | 120% | 124% | 122% | 116% | 117% | 103% | 108% | 111% | 113% |  |  |  |  |  |  |  |  |  |  |  |  |  |  |  |  |  |  |  |  |  | 
COC(=O)[C@@H]1CC2=CC(=O)CC[C@]2(C)[C@@]23O[C@@H]2C[C@@]2(C)[C@@H](CC[C@@]24CCC(=O)O4)[C@H]13 | 98.1% | 113% | 104% | 106% | 112% | 117% | 117% | 115% | 120% | 121% | 112% | 107% | 109% | 112% | 124% | 123% | 122% | 123% | 127% | 130% | 135% | 128% | 100% | 117% | 115% | 112% | 112% | 115% | 118% | 113% | 117% | 119% | 126%
CCCC[N+]1(C)[C@@H]2CC(OC(=O)[C@H](CO)c3ccccc3)C[C@H]1[C@@H]1O[C@@H]12 (stereo partly drawn) | 114% | 121% | 123% | 118% | 116% | 128% | 118% | 95.2% | 104% | 103% | 110% |  |  |  |  |  |  |  |  |  |  |  |  |  |  |  |  |  |  |  |  |  | 
NC(=O)[C@@H](CCC(F)(F)F)N(Cc1ccc(-c2ncon2)cc1F)[S+](=O)([O-])c1ccc(Cl)cc1 | 105% | 98.7% | 98.7% | 103% | 92.4% | 96.2% | 96.1% | 89.4% | 87.1% | 80% | 5.81% | 92.4% | 95% | 84.6% | 101% | 100% | 88.8% | 86.3% | 90.3% | 81.6% | 80.9% | 58% | 94.6% | 88.2% | 96.5% | 92.3% | 92.8% | 87.3% | 81.7% | 84.8% | 83.8% | 84.2% | 6.79%
CCOC\1=C(/C(=O)NC2=CC=C(OC3=C(Cl)C(=NC=C3)N)C(=C2)F)C(=O)N(\C=C1)C4=CC=C(F)C=C4 | 107% | 110% | 102% | 115% | 104% | 101% | 94.7% | 91.3% | 93.8% | 81.2% | 27.4% | 99.2% | 104% | 111% | 98.5% | 102% | 102% | 96.1% | 95.2% | 97.7% | 80.1% | 30.9% | 106% | 101% | 104% | 104% | 102% | 91% | 99.7% | 81.9% | 91.8% | 68.5% | 28.1%
COC1=C(CC=C(C)C)C2=C(\C=C/C(=O)O2)C=C1 | 84.2% | 109% | 126% | 121% | 110% | 114% | 97.7% | 87.5% | 69.8% | 65.7% | 58.8% | 96.9% | 96.6% | 116% | 116% | 106% | 104% | 107% | 105% | 80.1% | 81.9% | 54.7% | 101% | 123% | 109% | 112% | 112% | 109% | 98.1% | 92.4% | 75.2% | 76.3% | 55.7%
CC(=O)OCC(CCn1cnc2cnc(N)nc21)COC(C)=O | 92.3% | 103% | 109% | 106% | 113% | 102% | 108% | 106% | 112% | 110% | 111% | 89.8% | 95% | 103% | 103% | 108% | 97.3% | 102% | 102% | 101% | 106% | 103% | 92.5% | 101% | 98% | 87.9% | 105% | 104% | 97% | 106% | 102% | 103% | 97.3%
NNC(=O)c1ccncc1 | 111% | 124% | 119% | 121% | 121% | 127% | 127% | 117% | 101% | 103% | 85.7% | 106% | 107% | 111% | 124% | 111% | 114% | 122% | 120% | 116% | 107% | 84.7% | 115% | 122% | 113% | 119% | 116% | 127% | 118% | 121% | 103% | 108% | 76.2%
CN1CCN(CC1)C/2=N/C3=CC=CC=C3NC4=C2C=C(C)S4 | 98% | 93.9% | 105% | 98.5% | 98.8% | 104% | 107% | 96.9% | 87.4% | 97.4% | 91.1% | 92.8% | 104% | 104% | 102% | 102% | 105% | 102% | 101% | 72.2% | 102% | 84.8% | 94.1% | 99.9% | 97.9% | 96.8% | 98.3% | 99.9% | 99.1% | 91.4% | 92.1% | 93% | 91.9%
